From patent publication US20100261711A1, “SELECTIVE ANTICONVULSANT AGENTS AND THEIR USES” (WiSys Technology Foundation, priority 2009, published 2010)
Several values for one entry are separate records, joined by “and”; a condition that tells them apart may be missing. Identical values can stand only once.

Assays:
[1] = biological target: T1, GABAA/α3 (α3β3γ2 GABAA receptors) (Homo sapiens, UniProt P18507+P34903); test: Competitive binding assay, [3H]flunitrazepam; details: Binding Affinity at GABAA/α3, αxβ3γ2, [3H]flunitrazepam competition
T1 construct: expressed in transfected cells
Method: (§1) The GABAA subunit selectivity of several compounds prepared as described above were determined using competitive binding assays. […] Membranes were harvested with a Brandel cell harvester followed by three ice-cold washes onto polyethyleneimine-pretreated (0.3%) Whatman GF/C filters. Filters were dried overnight and then soaked in Ecoscint, a liquid scintillation cocktail (National Diagnostics; Atlanta, Ga.). Bound radioactivity was quantified by liquid scintillation counting. Membrane protein concentrations were determined using an assay kit from Bio-Rad (Hercules, Calif.) with bovine serum albumin as the standard.

[2] = biological target: T2, GABAA/α2 (α2β3γ2 GABAA receptors) (Homo sapiens, UniProt P18507+P47869); test: Competitive binding assay, [3H]flunitrazepam; details: Binding Affinity at GABAA/α2, αxβ3γ2, [3H]flunitrazepam competition
T2 construct: expressed in transfected cells
Method: as §1

[3] = biological target: T3, GABAA/α5 (α5β3γ2 GABAA receptors) (Homo sapiens, UniProt P18507+P31644); test: Competitive binding assay, [3H]flunitrazepam; details: Binding Affinity at GABAA/α5, αxβ3γ2, [3H]flunitrazepam competition
T3 construct: expressed in transfected cells
Method: as §1

[4] = biological target: T4, GABAA/α1 (α1β3γ2 GABAA receptors) (Homo sapiens, UniProt P14867+P18507); test: Competitive binding assay, [3H]flunitrazepam; details: Binding Affinity at GABAA/α1, αxβ3γ2, [3H]flunitrazepam competition
T4 construct: expressed in transfected cells
Method: as §1

[5] = Plasma levels by LC-MS/MS (tolerance study); format: in vivo, Sprague Dawley rats
Method: Immediately after testing, blood was collected via cardiac puncture. Samples were spun down, plasma was collected and acetonitrile added. Samples were frozen at −80° C. and shipped to a commercial laboratory (Enthalpy) for analysis.
Group 3 (8 subjects) was dosed with vehicle only.

[6] = biological target: T5, GABAA/α6 (α6β3γ2 GABAA receptors) (Homo sapiens, UniProt P18507+Q16445); test: Competitive binding assay, [3H]flunitrazepam
T5 construct: expressed in transfected cells
Method: as §1

[7] = test system: minimal motor deficit (ataxia, abnormal gait); test: Toxicity (TOX), minimal motor deficit, rats; format: in vivo; details: for Tox, animals toxic/tested: Rat PO, 50 mg/kg; for TOX (Rotorod Test), animals toxic/tested: Rat IP, 100 mg/kg
Method: (§2) The benzodiazepine derivative compounds selective for GABAa receptor subunits were tested for the ability to suppress seizures in several standard rat and mouse models of epilepsy. […] The standard models incorporated into anticonvulsant screening include the maximal electroshock test (MES), the subcutaneous Metrazol test (scMet), and evaluations of toxicity (TOX). The data for each condition is presented as a ratio of either the number of animals protected or toxic (loss of locomotor activity) over the number of animals tested at a given time point and dose.
(§3) To assess a compound's undesirable side effects (toxicity), animals are monitored for overt signs of impaired neurological or muscular function. […] When a mouse is placed on a rod that rotates at a speed of 6 rpm, the animal can maintain its equilibrium for long periods of time. The animal is considered toxic if it falls off this rotating rod three times during a 1-min period. In rats, minimal motor deficit is indicated by ataxia, which is manifested by an abnormal, uncoordinated gait. Rats used for evaluating toxicity are examined before the test drug is administered, since individual animals may have peculiarities in gait, equilibrium, placing response, etc., which might be attributed erroneously to the test substance.

[8] = test system: 6 Hz psychomotor seizure; test: Minimal clonic seizure (6 Hz) test; format: in vivo; details: Mice IP, 44 mA, 0.5 Hr
Text: Like the maximal electroshock (MES) test, the minimal clonic seizure (6 Hz) test is used to assess a compound's efficacy against electrically-induced seizures but uses a lower frequency (6 Hz) and longer duration of stimulation (3 s). Test compounds are pre-administered to mice via ip injection. […] Untreated mice will display seizures characterized by a minimal clonic phase followed by stereotyped, automatistic behaviors described originally as being similar to the aura of human subjects with partial seizures. Animals not displaying this behavior are considered protected (Table 10).

[9] = test system: Metrazol-induced clonic seizures; test: Subcutaneous Metrazol test (scMet), rats; format: in vivo
Method: as §2
(§4) Subcutaneous injection of the convulsant Metrazol produces clonic seizures in laboratory animals. […] Animals are pretreated with various doses of the test compound (in a similar manner to the MES test, although a dose of 50 mg/kg (po) is the standard for Test 2 scMet). At the previously determined TPE of the test compound, the dose of Metrazol which will induce convulsions in 97% of animals (CD97: 85 mg/kg mice) is injected into a loose fold of skin in the midline of the neck. […] An episode of clonic spasms, approximately 3-5 seconds, of the fore and/or hindlimbs, jaws, or vibrissae is taken as the endpoint.

[10] = test system: MES-induced seizures; test: Maximal electroshock test (MES), rats; format: in vivo; details: Rat PO, 50 mg/kg
Method: as §2
(§5) The MES is a model for generalized tonic-clonic seizures and provides an indication of a compound's ability to prevent seizure spread when all neuronal circuits in the brain are maximally active. These seizures are highly reproducible and are electrophysiologically consistent with human seizures. For all tests based on MES convulsions, 60 Hz of alternating current (50 mA in mice, 150 in rats) is delivered for by corneal electrodes which have been primed with an electrolyte solution containing an anesthetic agent (0.5% tetracaine HCL). For Test 1, mice are tested at various intervals following doses of 30, 100 and 300 mg/kg of test compound given by ip injection of a volume of 0.01 mL/g. In Test 2, rats are tested after a dose of 30 mg/kg (po) in a volume of 0.04 mL/g. Test 8 uses varying doses administered via i.p. injection, again in a volume of 0.04 ml/g. […] In Antiepileptic Drugs, Levy, R. H. M., Meldrum, B. S., Eds.; Raven Press: New York, pp 99-110, 1995b.).

[11] = test system: minimal muscular or neurological impairment; test: Toxicity (TOX), rotorod procedure, mice; format: in vivo
Method: as §2, §3

[12] = test system: MES-induced seizures; test: Maximal electroshock test (MES), mice; format: in vivo; details: Mice IP
Method: as §2, §5

[13] = test system: Metrazol-induced clonic seizures; test: Subcutaneous Metrazol test (scMet), mice; format: in vivo
Method: as §2, §4

[14] = Mice, 50 mg/kg PO (Mice IP), 0.5 hr
[15] = Mice, 50 mg/kg PO (Mice IP), 4.0 hr

## O=C(OCC(F)(F)F)c1ncn2c1CN=C(c1ccccc1)c1cc(Br)ccc1-2
other
  melting point: 202 to 204 °C

## O=C(OCC(Cl)(Cl)Cl)c1ncn2c1CN=C(c1ccccc1)c1cc(Br)ccc1-2
other
  melting point: 113 to 116 °C

## C[Si](C)(C)C#Cc1ccc2c(c1)C(c1ccccc1)=NCc1c(C(=O)OCC(F)(F)F)ncn1-2
other
  melting point: 107 to 110 °C

## C#Cc1ccc2c(c1)C(c1ccccc1)=NCc1c(C(=O)OCC(F)(F)F)ncn1-2 [DM-II-20, Trifluoroethyl 8-acetylenyl-6-phenyl-4H-benzo[f]imidazo[1,5-a][1,4]diaze-pine-3-carboxylate]
other
  melting point: 188 to 190 °C
[1]
  Ki: 35.7 nM
[2]
  Ki: 177 nM
[3]
  Ki: 198 nM
[4]
  Ki: 5720 nM

## C#Cc1ccc2c(c1)C(c1ccccn1)=NCc1c(C(=O)O)ncn1-2 [HZ-166 acid]
[5]; Group 1 (five days dosing of HZ-166)
  HZ-166 acid, plasma average with outliers excluded: 9.03 nmol/mL
[5]; Group 1: HZ-166 35.5 mg/kg ip for five days, blood after test on day 5
  Conc HZ-166 acid in plasma, individual subjects: 2910 ng/mL and 2570 ng/mL and 3430 ng/mL and 2830 ng/mL and BLQ < (1.00) ng/mL and 3780 ng/mL and 3310 ng/mL and 1900 ng/mL
[5]; Group 2 (HZ-166 on day 5 only)
  HZ-166 acid, plasma average with outliers excluded: 8.72 nmol/mL
[5]; Group 2: HZ-166 35.5 mg/kg ip on day 5 only
  Conc HZ-166 acid in plasma, individual subjects: 3270 ng/mL and 2180 ng/mL and 167 ng/mL and 3120 ng/mL and 3100 ng/mL and 3690 ng/mL and 2590 ng/mL and 2080 ng/mL

## O=C(OCC(F)(F)F)c1ncn2c1CN=C(c1ccccc1F)c1cc(Br)ccc1-2 [JYI-49, Trifluoroethyl-8-bromo-6-(2′-fluorophenyl)-4H-benzo[f]imidazo[1,5-a][1,4]diazepine-3-carboxylate]
[6]
  Ki: 3.39 µM
[2]
  Ki: 2.38 nM
[3]
  Ki: 6.7 nM
[4]
  Ki: 1.87 nM

## C#Cc1ccc2c(c1)C(c1ccccc1)=N[C@@H](C)c1nnc(C)n1-2 [SH-TS-CH3 (143), (4S)-8-Ethynyl-1,4-dimethyl-6-phenyl-4H-benzo[f][1,2,4]triazolo[4,3-a][1,4]diazepine]
[7]; 0.5 h
  Tox, animals toxic/tested: 0/4
[7]; 1.0 h
  Tox, animals toxic/tested: 0/4
[7]; 2.0 h
  Tox, animals toxic/tested: 0/4
[7]; 4.0 h
  Tox, animals toxic/tested: 0/4
[7]; […]
  Tox, animals toxic/tested: 0/4
[8]; 3 mg/kg
  6 Hz ED50 Biological Response, protected/tested: 4/8
[8]; 6 mg/kg
  6 Hz ED50 Biological Response, protected/tested: 5/8
[8]; 10 mg/kg
  6 Hz ED50 Biological Response, protected/tested: 8/8
[8]; Mus musculus, ip, 0.5 h, read-out: ED50 (6 Hz)
  ED50: 3.98 mg/kg
[9]; Rat PO, 50 mg/kg, 0.5 h
  scMet, animals protected/tested: 1/4
[9]; Rat PO, 50 mg/kg, 1.0 h
  scMet, animals protected/tested: 0/4^5
[9]; Rat PO, 50 mg/kg, 2.0 h
  scMet, animals protected/tested: 2/4^25
[9]; Rat PO, 50 mg/kg, 4.0 h
  scMet, animals protected/tested: 0/4^5
[9]; Rat PO, 50 mg/kg, […]
  scMet, animals protected/tested: 0/4^5
[2]
  Ki: 50.1 nM
[3]
  Ki: 8.1 nM
[4]
  Ki: 107 nM
[10]; 0.5 h
  MES, animals protected/tested: 0/4
[10]; 1.0 h
  MES, animals protected/tested: 0/4
[10]; 2.0 h
  MES, animals protected/tested: 0/4
[10]; 4.0 h
  MES, animals protected/tested: 0/4
[10]; […]
  MES, animals protected/tested: 0/4
[11]; Mice IP, 3 mg/kg, 0.5 Hr
  TOX (Rotorod Test), animals toxic/tested: 0/8
[11]; Mice IP, 10 mg/kg, 0.5 Hr
  TOX (Rotorod Test), animals toxic/tested: 5/8^14
[11]; Mice IP, 30 mg/kg, 0.5 Hr
  TOX (Rotorod Test), animals toxic/tested: 4/4^14
[11]; Mice IP, 30 mg/kg, 4.0 Hr
  TOX (Rotorod Test), animals toxic/tested: 0/2
[11]; Mice IP, 100 mg/kg, 0.5 hr
  TOX (Rotorod Test), animals toxic/tested: 8/8^14
[11]; Mice IP, 100 mg/kg, 4.0 hr
  TOX (Rotorod Test), animals toxic/tested: 0/4
[11]; Mice IP, 300 mg/kg, 0.5 Hr
  TOX (Rotorod Test), animals toxic/tested: 4/4^13
[11]; Mice IP, 300 mg/kg, 4.0 Hr
  TOX (Rotorod Test), animals toxic/tested: 2/2^14
[12]; 3 mg/kg, 0.5 Hr
  MES, animals protected/tested: 0/4
[12]; 10 mg/kg, 0.5 Hr
  MES, animals protected/tested: 0/4
[12]; 30 mg/kg, 0.5 Hr
  MES, animals protected/tested: 1/1
[12]; 30 mg/kg, 4.0 Hr
  MES, animals protected/tested: 0/1
[12]; 100 mg/kg, 0.5 hr
  MES, animals protected/tested: 3/3
[12]; 100 mg/kg, 4.0 hr
  MES, animals protected/tested: 0/3
[12]; 300 mg/kg, 0.5 Hr
  MES, animals protected/tested: 1/1
[12]; 300 mg/kg, 4.0 Hr
  MES, animals protected/tested: 1/1
[13]; Mice IP, 3 mg/kg, 0.5 Hr
  scMet, animals protected/tested: 2/4
[13]; Mice IP, 10 mg/kg, 0.5 Hr
  scMet, animals protected/tested: 4/4
[13]; Mice IP, 30 mg/kg, 0.5 Hr
  scMet, animals protected/tested: 1/1
[13]; Mice IP, 30 mg/kg, 4.0 Hr
  scMet, animals protected/tested: 0/1
[13]; Mice IP, 100 mg/kg, 0.5 hr
  scMet, animals protected/tested: 1/1
[13]; Mice IP, 100 mg/kg, 4.0 hr
  scMet, animals protected/tested: 1/1
[13]; Mice IP, 300 mg/kg, 0.5 Hr
  scMet, animals protected/tested: 1/1
[13]; Mice IP, 300 mg/kg, 4.0 Hr
  scMet, animals protected/tested: 1/1

## C#Cc1ccc2c(c1)C(c1ccccc1)=NCc1c(C(=O)OCC)ncn1-2 [XHe-II-053 (7), Ethyl 8-acetylenyl-6-phenyl-4H-benzo[f]imidazo[1,5-a][1,4]diazepine-3-carboxylate]
[7]; 0.5 hr
  TOX (Rotorod Test), animals toxic/tested: 2/4
[7]; 4.0 hr
  TOX (Rotorod Test), animals toxic/tested: 0/4
[9]; Rat IP, 100 mg/kg, 0.5 hr
  scMet, animals protected/tested: 1/4
[9]; Rat IP, 100 mg/kg, 4.0 hr
  scMet, animals protected/tested: 0/4
[11]; Mice IP, 100 mg/kg, 0.5 hr
  TOX (Rotorod Test), animals toxic/tested: 0/8
[11]; Mice IP, 100 mg/kg, 4.0 hr
  TOX (Rotorod Test), animals toxic/tested: 0/4
[11]; [14]
  TOX (Rotorod Test), animals toxic/tested: 2/4
[11]; [15]
  TOX (Rotorod Test), animals toxic/tested: 0/4
[12]; 100 mg/kg, 0.5 hr
  MES, animals protected/tested: 0/3
[12]; 100 mg/kg, 4.0 hr
  MES, animals protected/tested: 0/3
[13]; Mice IP, 100 mg/kg, 0.5 hr
  scMet, animals protected/tested: 0/1
[13]; Mice IP, 100 mg/kg, 4.0 hr
  scMet, animals protected/tested: 0/1
[13]; [14]
  scMet, animals protected/tested: 1/4
[13]; [15]
  scMet, animals protected/tested: 0/4
